# Measurements from patent US20080145313A1, “Compositions and Methods for the Treatment and Prevention of Neoplastic Disorders” (Genesis Research & Development Corporation Limited, priority 2006, published 2008).
# How the values were obtained:
# [1] = tested on: A549 cells; test: Growth inhibition of siRNA-transfected A549 cells, SYBR Green I DNA content; assay type: cell-based, human; conditions: 10 nM siRNA; DNA content 96 hours after transfection
# How it was run: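 A549 cells reverse-transfected with 10 nM Stealth siRNAs via Lipofectamine RNAiMAX, seeded at 5×10^3 cells/cm^2 in RPMI 1640/10% FCS; non-specific siRNA control. DNA content read 96 h post-transfection by SYBR Green I fluorescence (ex 485/em 535 nm) after freeze-thaw and Triton X-100 lysis; mean of three wells.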
# [2] = tested on: RRM1 mRNA; test: RRM1 mRNA level by quantitative RT-PCR in A549 cells; assay type: cell-based, human; conditions: 0.01 nM siRNA; 24 h post-transfection
# Experimental: RNA was purified from cells using Trizol® extraction as per the manufacturer's protocol (Invitrogen). cDNA was prepared by digesting approximately 200 ng purified RNA with DNAse I (Invitrogen) for 15 minutes at room temperature, followed by 15 minutes at 65° C. in the presence of 25 mM EDTA. 30 ng random primers were added and incubated for 10 minutes at room temperature, 1 minute on ice; Superscript III polymerase (Invitrogen) was added in presence of 5 nM DTT (Sigma, St Louis, Mo.) and 1 mM deoxyribonucleotides (Invitrogen), and the reaction incubated at 25° C. for 5 minutes, followed by an hour at 55° C. cDNA was diluted 1:3 in 10 mM Tris pH 7.0, and quantitative RT-PCR carried out on an ABI Prism 7900HT (Applied Biosciences, Inc., Foster City, Calif.) using FastStart TaqMan SYBRGreen (Roche, Basel, Switzerland) and specific primers at 360 nM for RRM1 and RRM2 and the housekeeping genes HPRT and Lamin. Primer sequence pairs used for RRM1, RRM2, HPRT and lamin are given in SEQ ID NO: 4881 and 4882; 4883 and 4884; 4885 and 4886; 4887 and 4888 respectively.
substance,measurement,setting,value
"SEQ ID NO: 4830: Stealth siRNA targeting RRM1 (chain 1 AAGATCTGCTTATTCAGTAACTGGG; chain 2 AAGAUCUGCUUAUUCAGUAACUGGG; Commercial Stealth siRNA duplex, modification pattern not given here; one strand in two spellings)",Growth Inhibition in A549 cells,[1],++ (inhibits by at least 75%)
same,RRM1 mRNA expression,[2],effectively silenced
